Like-named read-outs stand apart in the source and are kept apart here.
Assays:
physchem = settings: 5 mM glutathione
[1] = test system: ERK1/2 phosphorylation in A-427 cells; experiment: Basal ERK1/2 phosphorylation assay (MSD); format: cell-based; settings: Homo sapiens; A-427, lung, KRAS p.G12D heterozygous; 2-hour treatment
Procedure: (§1) For cellular assays, 2.5E+04 cells were seeded per well in 96-well plates and incubated at 37° C., 5% CO2, o/n. The following day, 3-fold serially-diluted compound or DMSO was added to the cells, and the plates were incubated at 37° C., 5% CO2 for 2 hours. […] Signal intensity corresponded with phospho-ERK1/2 levels and was normalized DMSO control.

[2] = test system: ERK1/2 phosphorylation in NCI-H358 cells; experiment: Basal ERK1/2 phosphorylation assay (MSD); format: cell-based; settings: Homo sapiens
Procedure: as §1

[3] = test system: ERK1/2 phosphorylation in NCI-H1322 cells; experiment: Basal ERK1/2 phosphorylation assay (MSD); format: cell-based; settings: Homo sapiens, 2 h, read-out: Basal p-ERK1/2 IC50
Procedure: as §1

[4] = test system: ERK1/2 phosphorylation in COLO-205 cells; experiment: Basal ERK1/2 phosphorylation assay (MSD); format: cell-based; settings: Homo sapiens; COLO-205, colon, KRAS WT BRAF p.V600E; 2-hour treatment
Procedure: as §1

[5] = test system: ERK1/2 phosphorylation in NCI-H1373 cells; experiment: Basal ERK1/2 phosphorylation assay (MSD); format: cell-based; settings: Homo sapiens; NCI-H1373, lung, KRAS p.G12C homozygous; 2-hour treatment
Procedure: as §1

[6] = test system: ERK1/2 phosphorylation in LS 174T cells; experiment: Basal ERK1/2 phosphorylation assay (MSD); format: cell-based; settings: Homo sapiens, LS174T, colon, KRAS p.G12D heterozygous, 2-hour treatment
Procedure: as §1

[7] = test system: ERK1/2 phosphorylation in SW480 cells; experiment: Basal ERK1/2 phosphorylation assay (MSD); format: cell-based; settings: Homo sapiens; SW480, colon, KRAS p.G12V homozygous; 2-hour treatment
Procedure: as §1

[8] = test system: ERK1/2 phosphorylation in NCI-H2122 cells; experiment: Basal ERK1/2 phosphorylation assay (MSD); format: cell-based; settings: Homo sapiens; NCI-H2122, lung, KRAS p.G12C homozygous; 2-hour treatment
Procedure: as §1

[9] = test system: ERK1/2 phosphorylation in SW837 cells; experiment: Basal ERK1/2 phosphorylation assay (MSD); format: cell-based; settings: Homo sapiens; SW837, colon, KRAS p.G12C heterozygous; 2-hour treatment
Procedure: as §1

[10] = test system: ERK1/2 phosphorylation in HCC-827 cells; experiment: Basal ERK1/2 phosphorylation assay (MSD); format: cell-based; settings: Homo sapiens, HCC827; HCC-827, lung, KRAS WT EGFR p.E746_A750del; 2-hour treatment
Procedure: as §1

[11] = test system: ERK1/2 phosphorylation in NCI-H1355 cells; experiment: Basal ERK1/2 phosphorylation assay (MSD); format: cell-based; settings: Homo sapiens; NCI-H1355, lung, KRAS p.G13C heterozygous; 2-hour treatment
Procedure: as §1

[12] = test system: ERK1/2 phosphorylation in Calu-1 cells; experiment: Basal ERK1/2 phosphorylation assay (MSD); format: cell-based; settings: Homo sapiens; Calu-1, lung, KRAS p.G12C heterozygous; 2-hour treatment
Procedure: as §1

[13] = test system: ERK1/2 phosphorylation in A549 cells; experiment: Basal ERK1/2 phosphorylation assay (MSD); format: cell-based; settings: Homo sapiens; A549, lung, KRAS p.G12S homozygous; 2-hour treatment
Procedure: as §1

[14] = test system: ERK1/2 phosphorylation in KM12 cells; experiment: Basal ERK1/2 phosphorylation assay (MSD); format: cell-based; settings: Homo sapiens; KM12, colon, KRAS WT TPM3-NTRK fusion; 2-hour treatment; read-out: Basal p-ERK1/2 IC50
Procedure: as §1

[15] = test system: ERK1/2 phosphorylation in NCI-H1792 cells; experiment: Basal ERK1/2 phosphorylation assay (MSD); format: cell-based; settings: Homo sapiens; NCI-H1792, lung, KRAS p.G12C heterozygous; 2-hour treatment
Procedure: as §1

[16] = test system: ERK1/2 phosphorylation in UM-UC-3 cells; experiment: Basal ERK1/2 phosphorylation assay (MSD); format: cell-based; settings: Homo sapiens, UMUC3; UM-UC-3, bladder, KRAS p.G12C homozygous; 2-hour treatment
Procedure: as §1

[17] = test system: ERK1/2 phosphorylation in SW1573 cells; experiment: Basal ERK1/2 phosphorylation assay (MSD); format: cell-based; settings: Homo sapiens; SW1573, lung, KRAS p.G12C homozygous; 2-hour treatment
Procedure: as §1

[18] = test system: ERK1/2 phosphorylation in NCI-H23 cells; experiment: Basal ERK1/2 phosphorylation assay (MSD); format: cell-based; settings: Homo sapiens; NCI-H23, lung, KRAS p.G12C heterozygous; 2-hour treatment
Procedure: as §1

[19] = test system: ERK1/2 phosphorylation in MIA PaCa-2 cells; experiment: Basal ERK1/2 phosphorylation assay (MSD); format: cell-based; settings: Homo sapiens, 2-hour treatment
Procedure: as §1

[20] = test system: ERK1/2 phosphorylation in NCI-H2030 cells; experiment: Basal ERK1/2 phosphorylation assay (MSD); format: cell-based; settings: Homo sapiens; NCI-H2030, lung, KRAS p.G12C homozygous; 2-hour treatment
Procedure: as §1

[21] = test system: KRASp.G12V (SW480-1AC) tumor xenografts; experiment: Tumor xenograft efficacy study; format: in vivo, mouse
[22] = Plasma and tumor concentrations of AMG 510 (LC-MS/MS); format: in vivo, mouse; settings: tumor-bearing mice; single oral dose 10 mg/kg
Procedure: Tumor tissue homogenates were prepared by adding water to tissue (4:1 mL:g) using tungsten carbide beads in a TissueLyzer (Qiagen). To 20 μL of sample (plasma or tumor tissue homogenate), 100 μL acetonitrile containing IS (200 ng/mL tolbutamide) was added, the sample was vortexed for 10 min, centrifuged at 3500 g for 10 min, and 90 μL of supernatant was collected. To the collected supernatant 100 μL of water (containing 0.1% formic acid) was added, and 5 μL of the resulting solution was injected onto the LC-MS/MS system. Chromatographic separations were achieved using a Phenomenex Kinetex C18 50×2.1 mm, 2.7 μm, maintained at 50° C., using 0.1% formic acid in H2O (mobile phase A) and 0.1% formic acid in acetonitrile (mobile phase B). […] Peak areas were integrated using Analyst® (Sciex).

[23] = test system: ERK1/2 phosphorylation in MIA PaCa-2 T2 tumors; experiment: Tumor pharmacodynamic assay (p-ERK, MSD immunoassay); format: in vivo, mouse

Question: With C=CC(=O)N1CCN(c2nc(=O)n(-c3c(C)ccnc3C(C)C)c3nc(-c4c(O)cccc4F)c(F)cc23)[C@@H](C)C1 (atropisomer, axis not shown) [AMG 510, 6-fluoro-7-(2-fluoro-6-hydroxyphenyl)-1-(4-methyl-2-(2-propanyl)-3-pyridinyl)-4-((2S)-2-methyl-4-(2-propenoyl)-1-piperazinyl)pyrido[2,3-d]pyrimidin-2(1H)-one] as the compound, how does the half-life (physchem) read?
Answer: Its half-life is 3.27 h.

Question: And the IC50 [1]?
Answer: The IC50 was over 10000 nM.

Question: What about the IC50 ([2]; NCI-H358, 2 h, read-out: p-ERK IC50) of the same compound?
Answer: Its IC50 is about 20 nM.

Question: What about the IC50 ([2]; NCI-H358, lung, KRAS p.G12C heterozygous, 2-hour treatment, read-out: Basal p-ERK1/2 IC50) of the same compound?
Answer: The IC50 was 35 ± 3 nM.

Question: What about the IC50 [3] of the same compound?
Answer: The IC50 was over 10000 nM.

Question: What about the IC50 [4] of the same compound?
Answer: The IC50 was over 10000 nM.

Question: And the IC50 [5]?
Answer: Its IC50 is 10 ± 0.1 nM.

Question: What about the IC50 [6] of the same compound?
Answer: The IC50 was over 10000 nM.

Question: And the IC50 [7]?
Answer: Its IC50 is over 10000 nM.

Question: And the IC50 [8]?
Answer: The IC50 was 123 ± 6 nM.

Question: What about the IC50 [9] of the same compound?
Answer: The IC50 was 18 ± 2 nM.

Question: What about the IC50 [10] of the same compound?
Answer: Its IC50 is over 10000 nM.

Question: And the IC50 [11]?
Answer: The IC50 was over 10000 nM.

Question: And the IC50 [12]?
Answer: The IC50 was 13 ± 4 nM.

Question: And the IC50 [13]?
Answer: Its IC50 is over 10000 nM.

Question: And the IC50 [14]?
Answer: Its IC50 is over 10000 nM.

Question: What about the IC50 [15] of the same compound?
Answer: Its IC50 is 45 ± 23 nM.

Question: And the IC50 [16]?
Answer: Its IC50 is 29 ± 16 nM.

Question: And the IC50 [17]?
Answer: Its IC50 is 27 ± 1 nM.

Question: And the IC50 [18]?
Answer: Its IC50 is 90 ± 17 nM.

Question: What about the IC50 ([19]; second of two KRASp.G12C cell lines (FIG. 40E: MIA PaCa-2), read-out: p-ERK IC50) of the same compound?
Answer: The IC50 was about 30 nM.

Question: What about the IC50 ([19]; MIA PaCa-2, pancreas, KRAS p.G12C homozygous, read-out: Basal p-ERK1/2 IC50) of the same compound?
Answer: The IC50 was 36 ± 2 nM.

Question: And the IC50 [20]?
Answer: The IC50 was 40 ± 20 nM.

Question: And the “tumor growth” value [21]?
Answer: The value was “no effect”.

Question: And the “time of peak plasma and tumor exposure” value [22]?
Answer: Its value is 0.5 h.

Question: And the inhibition at 100 mg/kg ([23]; Mus musculus, MIA PaCa-2 T2, 100 mg/kg oral single dose, 2 hours post-treatment, read-out: inhibition of p-ERK, reduction compared to control)?
Answer: Its inhibition at 100 mg/kg is 69%.

Question: And the “time of maximal inhibition of p-ERK post-treatment” value ([23]; single dose 10 mg/kg)?
Answer: Its value is 2 to 4 h.

— patent US12582657B2, “Combination therapy including a KRAS G12C inhibitor and one or more additional pharmaceutically active agents for the treatment of cancers” (Amgen Inc., priority 2018, dated 2026)
